pEC50, pKi: −log10 of the molar value. Calls of active or inactive are those of the source. No cut-off for these calls is given here.
How the values were obtained:
[1] = target: T1, Beta-2 adrenergic receptor (Mesocricetus auratus, UniProt P04274); experiment: Agonist activity at adrenergic beta2 receptor in Syrian hamster DDT1 MF2 cells assessed as stimulation of cAMP accumulation by radioimmunoassay in presence of 1 uM DPCPX; type: functional, cell-based
[2] = target: T1, Beta-2 adrenergic receptor; experiment: Displacement of [125I](-)-iodopindolol from adrenergic beta2 receptor in Syrian hamster DDT1 MF2 cells; type: cell-based
[3] = target: Beta-2 adrenergic receptor (Mesocricetus auratus) (UniProt P04274); experiment: Agonist activity at adrenergic beta2 receptor in Syrian hamster DDT1 MF2 cells assessed as stimulation of cAMP accumulation up to 100 uM by radioimmunoassay in presence of 1 uM DPCPX; type: functional, cell-based
Sequence of Beta-2 adrenergic receptor (Mesocricetus auratus) (P04274 whole entry, looked up): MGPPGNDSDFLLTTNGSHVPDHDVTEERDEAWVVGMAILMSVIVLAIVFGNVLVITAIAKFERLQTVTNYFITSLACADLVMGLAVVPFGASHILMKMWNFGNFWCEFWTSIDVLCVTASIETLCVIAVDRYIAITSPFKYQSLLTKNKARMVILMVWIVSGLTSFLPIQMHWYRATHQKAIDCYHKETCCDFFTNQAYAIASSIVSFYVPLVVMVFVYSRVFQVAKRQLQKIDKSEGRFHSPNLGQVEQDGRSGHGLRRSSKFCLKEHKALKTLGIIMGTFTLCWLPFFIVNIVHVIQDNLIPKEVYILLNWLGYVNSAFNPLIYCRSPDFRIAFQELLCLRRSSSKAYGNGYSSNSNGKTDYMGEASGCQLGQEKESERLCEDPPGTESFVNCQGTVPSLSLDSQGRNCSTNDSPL

[4] = Displacement of [3H]DPCPX from adenosine A1 receptor in Syrian hamster DDT1 MF2 cells; type: cell-based, Mesocricetus auratus
[5] = target: Beta-2 adrenergic receptor (Mesocricetus auratus) (UniProt P04274); experiment: Displacement of [125I](-)-iodopindolol from adrenergic beta2 receptor in Syrian hamster DDT1 MF2 cells at 10 uM; type: cell-based
[6] = target: Beta-2 adrenergic receptor (Mesocricetus auratus) (UniProt P04274); experiment: Agonist activity at adrenergic beta2 receptor in Syrian hamster DDT1 MF2 cells assessed as stimulation of cAMP accumulation by radioimmunoassay in presence of 1 uM DPCPX relative to (-)-isoproterenol; type: functional, cell-based

T1 sequence (P04274 whole entry): as the sequence (P04274 whole entry, looked up) above

pEC50 [1]	pKi [2]	Activity [3]	inhibition [5] [%]	Activity [6] [%]	Structure (SMILES)	pKi [4]
5.96	–	–	–	–	Nc1cc(C(O)CNCCCCNc2ncnc3c2ncn3[C@@H]2O[C@H](CO)[C@@H](O)[C@H]2O)ccc1O (stereo not given in full)	–
–	< 5.00	inactive	20	–	O=CNc1cc(C(O)CNCCNc2ncnc3c2ncn3[C@@H]2O[C@H](CO)[C@@H](O)[C@H]2O)ccc1O (stereo not given in full)	5.70
–	< 5.00	inactive	20	50	Nc1cc(C(O)CNCCNc2ncnc3c2ncn3[C@@H]2O[C@H](CO)[C@@H](O)[C@H]2O)ccc1O (stereo not given in full)	5.56
